Reference: publication PMC10669052, “Exploring Differences in Pharmacometrics of Rabeprazole between Genders via Population Pharmacokinetic–Pharmacodynamic Modeling” (Biomedicines, 2023)
Values after ≈ are worked out from the molar mass of the structure shown. Read-outs that look alike come from different tables or passages of the source.

Tests used:
clinical = conditions: for AUC / AUC(0-inf) / AUCextrap / Cmax / MRT / Tmax / Vd/F / half-life: human, in vivo, po
Procedure: Analysis of biochemical parameters was performed on all subjects participating in the clinical trial and the methods are presented in Supplementary Information S1. Information relating to the selection and progress of clinical trial participants is presented in Supplementary Information S2, and information on the clinical trial design and sampling is presented in Supplementary Information S3. The clinical trial protocol was thoroughly reviewed and officially approved (approval number: MB22-002; approved on 15 February 2022) by the Ministry of Food and Drug Safety (Cheongju-si, Republic of Korea). NCA was used to calculate the rabeprazole pharmacokinetic parameters for males and females before a comparison of rabeprazole pharmacokinetics was performed between genders to determine any significant rabeprazole pharmacokinetic parameters in males and females. Pharmacokinetic parameters calculated by NCA were estimated based on plasma concentration values over time after orally administering a 10 mg rabeprazole enteric-coated tablet. Information on the analytical method applied to quantify rabeprazole among plasma samples is briefly presented in Supplementary Information S4, whereas the methods for calculating pharmacokinetic parameters using NCA are presented in Supplementary Information S5. An additional NCA analysis was performed based on the normalized rabeprazole plasma concentration values for body weight, which is one of the major physiological differences between genders that has been frequently applied in past pharmacokinetic comparative studies between genders, and the results were categorized and compared by gender. The significant differences between genders were compared using a two-tailed t test, with significance determined at a p value of 0.05.
43 Supplementary Information 3
45 Clinical trial design and sampling
46 This bioequivalence investigation was performed as randomized, single-dose, open-label,
47 crossover, and two-way studies (with a washout period of 7 days). Prior to the clinical trial,
49 Minneapolis, MN, USA) installed into a vein on the arm or back of the hand, and 6 mL of blank
50 blood was collected. Then, all subjects were orally administered a single 10 mg rabeprazole
51 enteric-coated tablet along with 150 mL of water. Subjects had fasted for more than 10 h before
52 administration. Blood sampling from subjects was performed at a total of 13 specific time
53 points post-dose: Before administration (0 h) and at 1, 2, 2.5, 3, 3.5, 4, 4.5, 5, 5.5, 6, 7, 8, and
54 10 h after oral administration. The sampling method was as follows: To completely remove the
55 heparinized saline solution remaining in the venous catheter during blood collection,
56 approximately 1 mL of blood was collected and discarded each time, and approximately 6 mL
57 of blood was collected and placed in sodium heparinized vacutainer tubes (BD, Franklin Lakes,
58 NJ, USA) with the subject management number and blood collection time written on them.
59 After each blood draw, a saline solution for injection (containing heparin for injection) was
60 administered to prevent the blood remaining in the intravenous catheter from clotting. The
61 collected blood was centrifuged at 3,000 ×g for 10 min in a centrifuge set at 4 °C, and then
62 approximately 1 mL of plasma was taken, transferred to an Eppendorf tube (Eppendorf, […]

[1] = Population pharmacokinetic model (three sequential absorption with Tlag, two-compartment; Phoenix NLME); format: in vivo, human; conditions: for CL/F: both sexes, human, plasma, oral, 10 mg, read-out: tvCLc/F (typical value, central compartment clearance) (converted)
Procedure: Construction and analysis of the population pharmacokinetic model for rabeprazole were performed using a non-linear mixed effects model approach using Phoenix NLME (version 8.4, Pharsight, Certara Inc., Princeton, NJ, USA) software. An estimation of population pharmacokinetic parameters for rabeprazole was performed using the first-order conditional estimates method with extended least squares estimation (with ŋ–ε interaction). The development of the rabeprazole population pharmacokinetic model was largely performed in two steps. First, a basic structural model was established that could explain the plasma concentration of rabeprazole following its oral administration. This included a number of basic compartments, whether to reflect the lag time (Tlag) associated with rabeprazole oral absorption, the mechanistic structuring involved in the absorption process (including multiple absorption), or the selection of relevant error models to account for residual and IIV. Thus, in establishing the model, the values obtained using the NCA calculations were reflected as the initial parameter values, which accelerated the convergence of the final parameters and enabled its effective modeling. Second, a search was performed for model-applicable effective covariates relevant to the inter-individual rabeprazole pharmacokinetic variation modeling. This was achieved by applying stepwise candidate covariates to the IIVs of the pharmacokinetic parameters reflected in the model. Gender and individual physiological and biochemical factors were considered potential effective covariates and treated as categorical and continuous data, respectively, before application priorities were determined based on the results of the previous correlation screening. Appropriate models for each step were selected and performed using various statistical significance tools derived from Phoenix NLME, including Akaike’s information criterion (AIC), twice the negative log-likelihood (−2LL), and goodness-of-fit (GOF) plots, whereas the significance of the total number of parameters applied to the model (increased or decreased degrees of freedom) was also considered. Significance was determined using a Chi-square distribution p value of 0.05 (for forward selection) and 0.01 (for backward elimination) at −2LL and objective function value (OFV). The adequacy of the rabeprazole population pharmacokinetic model was verified using GOF (including distribution of residuals), visual predictive check (VPC), and bootstrapping processes. Approaches to each tool for model verification are presented in Supplementary Information S6.
The structure of the rabeprazole population pharmacokinetic model can be explained as two compartments, each with three sequential first-order absorption and Tlag values. As for the basic compartments, significant model improvements (−2LL reduction of p < 0.05 and/or 0.01) were confirmed in two-compartment structures rather than in one, whereas the −2LL increased in three- or more compartment structures alongside the total number of parameters. As a result, the plasma rabeprazole concentration profiles could be explained by its distribution in the central and peripheral compartments with two kinetics in the body. Regarding the delayed absorption pattern of rabeprazole during the absorption phase, several structural absorption compartment models have been attempted, such as the Tlag reflection model, the non-sequential two absorption model (having two or more absorption points with consideration of bioavailability), and the sequential absorption model (via the application of two or more absorption rate constant parameters between successive absorption compartments). In addition, mathematical transformation models, such as Weibull absorption, saturation, zero-order, and mean transit time (MTT) have also been attempted. […]

gastric pH = test: Pharmacodynamic model (sigmoid Emax with baseline) of gastric pH versus rabeprazole plasma concentration; format: in vivo, human; conditions: sigmoid Emax model with baseline fitted to digitized gastric pH vs plasma concentration data
Excerpt: The pharmacodynamic model was established based on rabeprazole plasma concentration-measured drug efficacy information (quantified using Web-plot-digitizer (version 4.6)), according to the rabeprazole exposure. The efficacy of rabeprazole was indicated by changes in gastric pH, which was related to plasma rabeprazole selectively inhibiting H^+/K^+-ATPase in gastric parietal cells, thereby increasing intragastric pH. Pharmacodynamic predictions for rabeprazole were achieved by structuring the effect compartment related to the rabeprazole pharmacokinetic profile in the central compartment. Simply, the change in the plasma pharmacokinetic profile over time after administering rabeprazole is directly related to the change in drug efficacy. Therefore, it could be expanded and implemented as a pharmacodynamic model, whereby the time–drug effect after exposure to rabeprazole can be quantified. The established and validated population pharmacokinetic model structure and parameter values associated with rabeprazole were fixed as representative values of the population before being expanded into a model to predict the pharmacodynamics of rabeprazole. This was conducted to explore the effect of any differences in the absorption rate of rabeprazole between genders.

[2] = final population PK model, Estimate
[3] = population PK model estimate as quoted in text

`COCCCOc1ccnc(C[S+]([O-])c2nc3ccccc3[nH]2)c1C` (centres unmarked) [rabeprazole, Rabeprazole] showed an AUC (clinical; both, 10 mg) of 432 ± 166 ng·h/mL, an AUC(0-inf) (clinical; both, 10 mg) of 456 ± 174 ng·h/mL and an AUCextrap (clinical; both, 10 mg) of 5.07 ± 9.42%. For the same molecule, the Cmax (clinical; both, 10 mg) was 236.57 ± 97.86 ng/mL, the MRT (clinical; both, 10 mg) was 4.79 ± 1.7 h and the Tmax (clinical; both, 10 mg) was 3.71 ± 1.22 h. The Vd/F (clinical; both, 10 mg) was 53.9 ± 27.3 L, the half-life (clinical; both, 10 mg) was 1.55 ± 0.54 h and the Tmax (clinical; female) was 4.1 ± 1.15 h. For the same molecule, the AUC (clinical; female, 10 mg) was 424 ± 176 ng·h/mL, the AUC(0-inf) (clinical; female, 10 mg) was 453 ± 181 ng·h/mL and the AUCextrap (clinical; female, 10 mg) was 4.38 ± 7.82%. For the same molecule, the Cmax (clinical; female, 10 mg) was 260 ± 113 ng/mL, the MRT (clinical; female, 10 mg) was 5.25 ± 1.97 h and the Vd/F (clinical; female, 10 mg) was 54.3 ± 38.1 L. The half-life (clinical; female, 10 mg) was 1.48 ± 0.64 h, the AUC (clinical; male, 10 mg) was 439 ± 161 ng·h/mL and the AUC(0-inf) (clinical; male, 10 mg) was 459 ± 172 ng·h/mL. The AUCextrap (clinical; male, 10 mg) was 3.84 ± 4.01%, the Cmax (clinical; male, 10 mg) was 216 ± 79.6 ng/mL and the MRT (clinical; male, 10 mg) was 4.4 ± 1.36 h. For the same molecule, the Tmax (clinical; male, 10 mg) was 3.38 ± 1.21 h, the Vd/F (clinical; male, 10 mg) was 53.5 ± 12.8 L and the half-life (clinical; male, 10 mg) was 1.6 ± 0.44 h. The “AUCinf (plasma concentrations normalized by body weight)” value (clinical; single oral 10 mg enteric-coated tablet, NCA, body weight normalized, Total (n = 45), mean ± SD) was 7.17 ± 3.34 ng·h/mL/kg, the “dKa3dBSA (quantitative correlation value between Ka3 and body surface area)” value ([1]; Bootstrap (n = 1000) Median) was −0.95 and the “dTlagdGender (quantitative correlation value between Tlag and gender)” value ([1]; Bootstrap (n = 1000) Median) was 0.67. The “tvCLp/F (typical value, peripheral compartment clearance)” value ([1]; Bootstrap (n = 1000) Median) was 5.38 L/h, the “tvKa1 (first sequential absorption rate constant)” value ([1]; Bootstrap (n = 1000) Median) was 1.89 h⁻¹ and the “tvKa2 (second sequential absorption rate constant)” value ([1]; Bootstrap (n = 1000) Median) was 2.03 h⁻¹. The “tvKa3 (third sequential absorption rate constant)” value ([1]; Bootstrap (n = 1000) Median) was 3.26 h⁻¹, the “tvTlag (typical value, lag time)” value ([1]; Bootstrap (n = 1000) Median) was 1.55 h and the “tvVc/F (typical value, central compartment distribution volume)” value ([1]; Bootstrap (n = 1000) Median) was 10.06 L. The “tvVp/F (typical value, peripheral compartment distribution volume)” value ([1]; Bootstrap (n = 1000) Median) was 11.30 L, the “ε (residual error)” value ([1]; Bootstrap (n = 1000) Median) was 0.35 and the “ω^2CLc/F (inter-individual variability)” value ([1]; Bootstrap (n = 1000) Median) was 0.14. For the same molecule, the “ω^2Ka1 (inter-individual variability)” value ([1]; Bootstrap (n = 1000) Median) was 0.00, the “ω^2Ka2 (inter-individual variability)” value ([1]; Bootstrap (n = 1000) Median) was 0.00 and the “ω^2Ka3 (inter-individual variability)” value ([1]; Bootstrap (n = 1000) Median) was 1.82. The “ω^2Tlag (inter-individual variability)” value ([1]; Bootstrap (n = 1000) Median) was 0.23, the “ω^2Vc/F (inter-individual variability)” value ([1]; Bootstrap (n = 1000) Median) was 1.55 and the CL/F ([1]; Bootstrap (n = 1000) Median) was 424 mL/min. For the same molecule, the CL/F [1, 2] was 428 mL/min, the “dKa3dBSA (quantitative correlation value between Ka3 and body surface area)” value [1, 2] was −1.11 and the “tvCLp/F (typical value, peripheral compartment clearance)” value [1, 2] was 5.45 L/h. For the same molecule, the “tvKa1 (first sequential absorption rate constant, dosing depot–depot 1)” value [1, 2] was 1.91 h⁻¹, the “tvKa2 (second sequential absorption rate constant, depot 1–depot 2)” value [1, 2] was 2.43 h⁻¹ and the “tvKa3 (third sequential absorption rate constant, depot 2–central compartment)” value [1, 2] was 3.34 h⁻¹. The “tvTlag (typical value, lag time)” value [1, 2] was 1.56 h, the “tvVc/F (typical value, central compartment distribution volume)” value [1, 2] was 10.31 L and the “tvVp/F (typical value, peripheral compartment distribution volume)” value [1, 2] was 11.46 L. The “ω^2CLc/F (inter-individual variability)” value [1, 2] was 0.14, the “ω^2Ka1 (inter-individual variability)” value [1, 2] was 0.00 and the “ω^2Ka2 (inter-individual variability)” value [1, 2] was 0.00. The “ω^2Ka3 (inter-individual variability)” value [1, 2] was 1.74, the “ω^2Tlag (inter-individual variability)” value [1, 2] was 0.23 and the “ω^2Vc/F (inter-individual variability)” value [1, 2] was 2.04. The “dTlagdGender (quantitative correlation value between Tlag and gender)” value ([1]; final population PK model, Estimate, female = 1, male = 0) was 0.73, the “ε (residual error)” value ([1]; final population PK model, Estimate, log-additive error model) was 0.37 and the Vc/F estimate [1, 3] was 10.3 L. For the same molecule, the Vp/F estimate [1, 3] was 11.5 L, the EC50 (gastric pH; Homo sapiens, read-out: EC50 (plasma rabeprazole concentration required to achieve 50% of the Emax)) was 0.0516 µg/mL (≈ 0.143 µM) and the “E0 (basal pH effect in the stomach that occurs without rabeprazole)” value (gastric pH) was 2.50. The “Emax (maximal effect of increasing gastric pH by plasma rabeprazole level)” value (gastric pH) was 4.72 and the “γ (sigmoidicity factor)” value (gastric pH) was 5.04.
